Here are results for 17 compounds from patent US20150368242A1, “NOVEL TETRAHYDROPYRIDOPYRIMIDINONE DERIVATIVE” (Ajinomoto Co., Inc., priority 2013, published 2015).

pIC50: −log10 of the molar value. Where a name gives a salt, the structure may show the parent alone. Read-outs that look alike come from different tables or passages of the source.

The assay concerns the target T1, recombinant human MGAT2 enzyme (Homo sapiens, UniProt Q3SYC2).
T1 construct: made in house; host or cells: CHO-K1 (Jump-In CHO-K1 Kit, Life Technologies); microsomal fraction used as the enzyme solution
Kind of assay: Test for human MGAT2 activity inhibitory action (14C-oleoyl CoA, recombinant enzyme microsomes). It counts as biochemical. The arrangement: key to Potency relative to Comparative Example 1 (higher = more potent): % inhibition = {1−(C−B)/(A−B)}×100, B = 10 μM Comparative Example 1. As to conditions: for pIC50: read-out: IC50. Here is the method:
The human MGAT2 gene described in Am. J. Physiol. Endocrinol. Metab. 285: E927-E937, 2003 was expressed using Jump-In™ CHO-K1 Kit (Life technologies) as described in the attached manual. The cells were suspended in a buffer containing Tris-hydrochloric acid (pH 7.4) at a final concentration of 1 mM, 1 mM ethylenediaminetetraacetic acid, 1 mM dithiothreitol, 250 mM sucrose, and complete protease inhibitor cocktail (Roche applied Science), and then disrupted using a Teflon homogenizer (AS ONE Corporation), followed by centrifugation at 130 g for 10 minutes. The supernatant was further centrifuged at 100,000 g for 1 hour to obtain a pellet as microsomes containing the recombinant enzyme, and a solution obtained by suspending this pellet at a protein concentration of about 800 to 1900 μg/ml was used as an MGAT recombinant enzyme solution.
To a buffer containing 50 mM Tris-hydrochloric acid (pH 7.4), 6 mM magnesium chloride, and 2 mg/mL bovine serum albumin, a test compound was added, and the final concentration of dimethyl sulfoxide was adjusted to 0.3%. Moreover, 2-monooleoyl glycerol, oleoyl CoA, 1-^14C-oleoyl CoA (Perkin Elmer), and orlistat (SIGMA) were added at final concentrations of 50 μM, 50 μM, 2.2 μM, and 8.3 μM, respectively, followed by incubation at 37° C. for 10 minutes. After 10 minutes, the recombinant human MGAT2 enzyme solution was added at a final concentration of 0.67 μg/mL, and the reaction was started, with the amount of the reaction solution being 150 μl. The reaction was carried out at 37° C. for 30 minutes.
After 30 minutes, the reaction was stopped by adding 300 μl of isopropanol:heptane:water=(80:20:2) to the reaction liquid. Further, 200 μl of heptane and 100 μl of water were added, followed by stirring. Then, 100 μl of the upper layer was transferred to a 96-well plate (Corning), and mixed with 100 μl of liquid scintillator (LumaSafe Plus, Lumac). Then, the ^14C count was quantitatively determined using TopCount NXT™ microplate scintillation luminescence counter (Perkin Elmer).
The ^14C count in a case where no test compound was added was defined as A, the ^14C count in a case where 10 μM of the compound (Comparative Example 1) of Example No. 8 of WO2008/038768 was added was defined as B, and the ^14C count in the case where the test compound was added was taken as C. For this case, {1−(C−B)/(A−B)}×100(%) was calculated as the human MGAT2 activity inhibition ratio of the test compound (shown in the column named vs Comp. Ex. 1 in the following Table). A greater value of the “vs Comparative Example 1” means that the MGAT2 activity inhibitory action of the compound of Example was higher as compared to the MGAT2 activity inhibitory action of the compound of Comparative Example 1 (i.e., the human MGAT2 activity inhibition ratio was higher). […] Since this evaluation test was conducted for two separate groups, the test results of the two groups are shown separately in Table (First Test) and Table 4 (Second Test).
Next, the compounds of Examples 25 to 60 of the present invention were also investigated for their pharmacological action by using the same method as in Examples 1 to 24. […] Note that, a comparative evaluation test against the compound of Comparative Example 1 was conducted for each of the compounds of Examples (in every measurement of the inhibitory activity of the compounds of Examples 25 to 60, the inhibitory activity of the compound of Comparative Example 1 was measured). The 50% inhibition concentrations of Comparative Example 1 in the measurement of the inhibitory activities of the compounds of Examples 25 to 60 were shown in Table 5 as “IC50 (nM) of Comparative Example 1.”

The mark [1] stands for this setting: First Test (Table 3), relative to Comparative Example 1, greater value = higher inhibitory action.
The mark [2] stands for this setting: Second Test (Table 4), relative to Comparative Example 1.

T1 sequence (Q3SYC2 whole entry): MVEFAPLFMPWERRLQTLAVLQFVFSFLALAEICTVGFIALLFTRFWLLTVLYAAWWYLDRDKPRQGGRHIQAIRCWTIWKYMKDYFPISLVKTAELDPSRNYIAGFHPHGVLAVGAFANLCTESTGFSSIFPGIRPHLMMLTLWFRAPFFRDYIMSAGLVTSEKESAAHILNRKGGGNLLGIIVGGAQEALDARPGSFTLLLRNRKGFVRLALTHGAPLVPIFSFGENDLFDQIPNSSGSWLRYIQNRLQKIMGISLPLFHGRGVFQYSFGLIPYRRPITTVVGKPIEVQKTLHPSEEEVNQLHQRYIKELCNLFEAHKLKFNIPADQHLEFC

Turning to `O=C(CNCc1ccc(C(F)(F)F)cc1)N1CCc2nc(SC3CCC3)n(-c3ccccc3)c(=O)c2C1` [Example 1, 2-cyclobutylsulfanyl-3-phenyl-6-[2-[[4-(trifluoromethyl)phenyl]methylamino]acetyl]-7,8-dihydro-5H-pyrido[4,3-d]pyrimidin-4-one trifluoroacetate], the negative-log IC50 (pIC50) (as a rule, the IC50 on a negative log10 scale, so that one unit is a factor of ten) (First Test (Table 3)) was 8.39. In addition, under setting [1], the “Potency relative to Comparative Example 1 (higher = more potent)” value turned out to be 54.

Regarding `O=C(CNCCCc1ccccc1)N1CCc2nc(SC3CCC3)n(-c3ccccc3)c(=O)c2C1` [Example 2, 2-cyclobutylsulfanyl-3-phenyl-6-[2-(3-phenylpropylamino)acetyl]-7,8-dihydro-5H-pyrido[4,3-d]pyrimidin-4-one trifluoroacetate], the pIC50 (First Test (Table 3)) is 8.89. Besides, the “Potency relative to Comparative Example 1 (higher = more potent)” value under setting [1] is reported as 171.

Take `O=C(CNCc1ccc(Cl)cc1)N1CCc2nc(SC3CCC3)n(-c3ccccc3)c(=O)c2C1` [Example 3, 6-[2-[(4-chlorophenyl)methylamino]acetyl]-2-cyclobutylsulfanyl-3-phenyl-7,8-dihydro-5H-pyrido[4,3-d]pyrimidin-4-one trifluoroacetate]: under “First Test (Table 3)”, the pIC50 is 8.43. In addition, the “Potency relative to Comparative Example 1 (higher = more potent)” value under setting [1] amounted to 60.

In the case of `O=C(CNCc1cccc(Cl)c1)N1CCc2nc(SC3CCC3)n(-c3ccccc3)c(=O)c2C1` [Example 4, 6-[2-[(3-chlorophenyl)methylamino]acetyl]-2-cyclobutylsulfanyl-3-phenyl-7,8-dihydro-5H-pyrido 4,3-[d]pyrimidin-4-one trifluoroacetate], the pIC50 (First Test (Table 3)) was 8.54. Moreover, the “Potency relative to Comparative Example 1 (higher = more potent)” value under setting [1] was 77.

As for `O=C(CNCc1ccc(OCc2ccc(C(F)(F)F)cc2)cc1)N1CCc2nc(SC3CCC3)n(-c3ccccc3)c(=O)c2C1` [Example 6, 2-cyclobutylsulfanyl-3-phenyl-6-[2-[[4-[[4-(trifluoromethyl)phenyl]methoxy]phenyl]methylamino]acetyl]-7,8-dihydro-5H-pyrido[4,3-d]pyrimidin-4-one hydrate trifluoroacetate], the pIC50 (First Test (Table 3)) is 8.80. Further, under setting [1], the “Potency relative to Comparative Example 1 (higher = more potent)” value came to 144.

Regarding `O=C(CNCc1ccc(COc2ccccc2)cc1)N1CCc2nc(SC3CCC3)n(-c3ccccc3)c(=O)c2C1` [Example 7, 2-cyclobutylsulfanyl-6-[2-[[4-(phenoxymethyl)phenyl]methylamino]acetyl]-3-phenyl-7,8-dihydro-5H-pyrido[4,3-d]pyrimidin-4-one trifluoroacetate], for the setting “First Test (Table 3)”, the negative logarithm of the IC50 (pIC50) was 8.64. The “Potency relative to Comparative Example 1 (higher = more potent)” value under setting [1] was 75.

Turning to `O=C(CNCCc1ccccc1)N1CCc2nc(SC3CCC3)n(-c3ccccc3)c(=O)c2C1` [Example 8, 2-cyclobutylsulfanyl-6-[2-(phenylethylamino)acetyl]-3-phenyl-7,8-dihydro-5H-pyrido[4,3-d]pyrimidin-4-one trifluoroacetate], the pIC50 (First Test (Table 3)) was 8.46. The “Potency relative to Comparative Example 1 (higher = more potent)” value under setting [1] was determined as 63.

Turning to `O=C(CNCCOc1ccc(F)c(F)c1)N1CCc2nc(SC3CCC3)n(-c3ccccc3)c(=O)c2C1` [Example 9, 2-cyclobutylsulfanyl-6-[2-[2-(3,4-difluorophenoxy)ethylamino]acetyl]-3-phenyl-7,8-dihydro-5H-pyrido[4,3-d]pyrimidin-4-one trifluoroacetate], the pIC50 (First Test (Table 3)) was 8.41. Further, the “Potency relative to Comparative Example 1 (higher = more potent)” value under setting [1] was 57.

On to `O=C(CCNCc1ccccc1)N1CCc2nc(SC3CCC3)n(-c3ccccc3)c(=O)c2C1` [Example 10, 6-[3-(benzylamino)propanoyl]-2-cyclobutylsulfanyl-3-phenyl-7,8-dihydro-5H-pyrido[4,3-d]pyrimidin-4-one trifluoroacetate], for which the negative-log IC50 (pIC50) (First Test (Table 3)) is 9.09. Also, the “Potency relative to Comparative Example 1 (higher = more potent)” value under setting [1] was 273.

Regarding `[2H]c1c([2H])c([2H])c(-n2c(SC3CCC3)nc3c(c2=O)CN(C(=O)CCNCc2ccccc2)CC3)c([2H])c1[2H]` [Example 11, 6-[3-(benzylamino)propanoyl]-2-cyclobutylsulfanyl-3-(2,3,4,5,6-pentadeuteriophenyl)-7,8-dihydro-5H-pyrido[4,3-d]pyrimidin-4-one trifluoroacetate], for the setting “Second Test (Table 4)”, the negative-log IC50 (pIC50) is 8.74. For the same compound, under setting [2], the “Potency relative to Comparative Example 1 (higher = more potent)” value stood at 166.

As for `O=C(CCNCc1ccccc1)N1CCc2nc(SC3CCC3)n(CC3CCC3)c(=O)c2C1` [Example 12, 6-[3-(benzylamino)propanoyl]-3-(cyclobutylmethyl)-2-cyclobutylsulfanyl-7,8-dihydro-4H-pyrido[4,3-d]pyrimidin-4-one trifluoroacetate], the pIC50 (Second Test (Table 4)) is 8.85. The “Potency relative to Comparative Example 1 (higher = more potent)” value under setting [2] was determined as 216.

On to `O=C(CCNCc1ccccc1)N1CCc2nc(SC3CCC3)n(C[C@H]3CCCO3)c(=O)c2C1` [Example 13, 6-[3-(benzylamino)propanoyl]-2-cyclobutylsulfanyl-3-[[(2R)-tetrahydrofuran-2-yl]methyl]-7,8-dihydro-5H-pyrido[4,3-d]pyrimidin-4-one trifluoroacetate], for which the negative logarithm of the IC50 (pIC50) (Second Test (Table 4)) is 8.16. Further, the “Potency relative to Comparative Example 1 (higher = more potent)” value under setting [2] is 44.

Consider `O=C(CCNCc1ccccc1)N1CCc2nc(SC3CCC3)n(Cc3ccco3)c(=O)c2C1` [Example 14, 6-[3-(benzylamino)propanoyl]-2-cyclobutylsulfanyl-3-(2-furylmethyl)-7,8-dihydro-5H-pyrido[4,3-d]pyrimidin-4-one trifluoroacetate], for which the pIC50 (Second Test (Table 4)) is 8.33. Further, the “Potency relative to Comparative Example 1 (higher = more potent)” value under setting [2] is recorded as 65.

`O=C(CCNCc1ccccc1)N1CCc2nc(SC3CCC3)n(C3CCCC3)c(=O)c2C1` [Example 15, 6-[3-(benzylamino)propanoyl]-2-cyclobutylsulfanyl-3-cyclopentyl-7,8-dihydro-5H-pyrido[4,3-d]pyrimidin-4-one trifluoroacetate]: the pIC50 (Second Test (Table 4)) was 8.62. The “Potency relative to Comparative Example 1 (higher = more potent)” value under setting [2] is recorded as 129.

For `O=C(CCNCc1ccsc1)N1CCc2nc(SC3CCC3)n(-c3ccccc3)c(=O)c2C1` [Example 16, 2-cyclobutylsulfanyl-3-phenyl-6-[3-(3-thienylmeethylamino)propanoyl]-7,8-dihydro-5H-pyrido[4,3-d]pyrimidin-4-one trifluoroacetate], where the note is “Second Test (Table 4)”, the pIC50 is 8.74. The “Potency relative to Comparative Example 1 (higher = more potent)” value under setting [2] worked out at 173.

Turning to `COc1ccccc1CNCCC(=O)N1CCc2nc(SC3CCC3)n(-c3ccccc3)c(=O)c2C1` [Example 17, 2-cyclobutylsulfanyl-6-[3-[(2-methoxyphenyl)methylamino]propanoyl]-3-phenyl-7,8-dihydro-5H-pyrido[4,3-d]pyrimidin-4-one trifluoroacetate], the negative-log IC50 (pIC50) (Second Test (Table 4)) is 8.68. The “Potency relative to Comparative Example 1 (higher = more potent)” value under setting [2] came to 148.

With `O=C(CCNCc1ccccc1F)N1CCc2nc(SC3CCC3)n(-c3ccccc3)c(=O)c2C1` [Example 18, 2-cyclobutylsulfanyl-6-[3-[(2-fluorophenyl)methylammino]propanoyl]-3-phenyl-7,8-dihydro-5H-pyrido[4,3-d]pyrimidin-4-one trifluoroacetate], the negative logarithm of the IC50 (pIC50) (Second Test (Table 4)) is 8.64. Besides, the “Potency relative to Comparative Example 1 (higher = more potent)” value under setting [2] amounted to 134.
